Twelve compounds from PubChem BioAssay AID272 (DTP/NCI, 2004) can be followed below.

Results filed as inconclusive are left out. Residues, ends and D or L forms follow the SMILES beside them. *: point of attachment. Trt = c1ccc(C(c2ccccc2)(c2ccccc2)*)cc1; Bn = c1ccc(C*)cc1

The assay concerns Lewis lung carcinoma i.m., BDF1 mice, T/C %. Kind of assay: NCI In Vivo Anticancer Drug Screen. Data for tumor model Lewis Lung Carcinoma (intramuscular) in B6D2F1 (BDF1) mice. Put shortly: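 Transplantable tumour model; readout survival or tumour size; value = treated (T) / vehicle control (C).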
Where [1] appears, read: endpoint: median survival time, dose: 3.9 mg/kg/injection, schedule: Q01DX011 (ip), vehicle: saline, higher = longer survival.
Where [2] appears, read: endpoint: median survival time, dose: 10.8 mg/kg/injection, schedule: Q01DX011 (ip), vehicle: saline, higher = longer survival.
Setting [3] is: endpoint: median survival time, dose: 18.0 mg/kg/injection, schedule: Q01DX011 (ip), vehicle: saline, higher = longer survival.
Where [4] appears, read: endpoint: mean tumor weight (est.), dose: 12.5 mg/kg/injection, schedule: Q01DX011 (ip), vehicle: saline with Tween-80, higher = larger tumour.
Setting [5] is: endpoint: median survival time, dose: 12.5 mg/kg/injection, schedule: Q01DX011 (ip), vehicle: saline with Tween-80, higher = longer survival.

Regarding `NC(Cc1c[nH]c2ccc(N(CCCl)CCCl)cc12)C(=O)O` (configuration not stated), the T/C runs as follows: (endpoint: mean tumor weight, dose: 0.06 mg/kg/injection, schedule: Q01DX011 (ip), vehicle: other, higher = larger tumour) 90 % of control; (endpoint: mean tumor weight, dose: 0.12 mg/kg/injection, schedule: Q01DX011 (ip), vehicle: other, higher = larger tumour) 96 % of control; (endpoint: mean tumor weight, dose: 0.25 mg/kg/injection, schedule: Q01DX011 (ip), vehicle: other, higher = larger tumour) 105 % of control; (endpoint: mean tumor weight, dose: 0.5 mg/kg/injection, schedule: Q01DX011 (ip), vehicle: other, higher = larger tumour) 97 % of control; (endpoint: mean tumor weight, dose: 1.0 mg/kg/injection, schedule: Q01DX011 (ip), vehicle: other, higher = larger tumour) 83 % of control; (endpoint: mean tumor weight, dose: 2.0 mg/kg/injection, schedule: Q01DX011 (ip), vehicle: other, higher = larger tumour) 103 % of control. Moreover, the T/C reads like this: (endpoint: median survival time, dose: 0.06 mg/kg/injection, schedule: Q01DX011 (ip), vehicle: other, higher = longer survival) 94 % of control; (endpoint: median survival time, dose: 0.12 mg/kg/injection, schedule: Q01DX011 (ip), vehicle: other, higher = longer survival) 102 % of control; (endpoint: median survival time, dose: 0.25 mg/kg/injection, schedule: Q01DX011 (ip), vehicle: acid diluted with saline, higher = longer survival) 89 % of control; (endpoint: median survival time, dose: 0.25 mg/kg/injection, schedule: Q01DX011 (ip), vehicle: other, higher = longer survival) 86 % of control; (endpoint: median survival time, dose: 0.5 mg/kg/injection, schedule: Q01DX011 (ip), vehicle: acid diluted with saline, higher = longer survival) 105 % of control; (endpoint: median survival time, dose: 0.5 mg/kg/injection, schedule: Q01DX011 (ip), vehicle: other, higher = longer survival) 96 % of control. The T/C (endpoint: median survival time, dose: 1.0 mg/kg/injection, schedule: Q01DX011 (ip), vehicle: other, higher = longer survival) is 104 % of control.

As to `Cc1c(N)nc(C(CC(N)=O)NCC(N)C(N)=O)nc1C(=O)NC(C(=O)NC(C)C(O)C(C)C(=O)NC(C(=O)NCCc1nc(-c2nc(C(=O)NCCCCN=C(N)N)cs2)cs1)C(C)O)C(OC1OC(CO)C(O)C(O)C1OC1OC(CO)C(O)C(OC(N)=O)C1O)c1cnc[nH]1` (configuration not stated), the T/C is, setting by setting: under setting [1], 122 % of control; (endpoint: median survival time, dose: 6.5 mg/kg/injection, schedule: Q01DX011 (ip), vehicle: saline, higher = longer survival) 112 % of control; under setting [2], 150 % of control; under setting [3], 170 % of control; (endpoint: median survival time, dose: 30.0 mg/kg/injection, schedule: Q01DX011 (ip), vehicle: saline, higher = longer survival) 168 % of control.

On to `O=c1[nH]c2cc(Cl)ccc2c(CCl)c1Cl`, for which the T/C is 112 % of control (endpoint: mean tumor weight, dose: 25.0 mg/kg/injection, schedule: Q01DX011 (ip), vehicle: saline, higher = larger tumour); 101 % of control (endpoint: mean tumor weight, dose: 50.0 mg/kg/injection, schedule: Q01DX011 (ip), vehicle: saline, higher = larger tumour); 115 % of control (endpoint: mean tumor weight, dose: 100.0 mg/kg/injection, schedule: Q01DX011 (ip), vehicle: saline, higher = larger tumour); 95 % of control (endpoint: median survival time, dose: 25.0 mg/kg/injection, schedule: Q01DX011 (ip), vehicle: saline, higher = longer survival); 102 % of control (endpoint: median survival time, dose: 50.0 mg/kg/injection, schedule: Q01DX011 (ip), vehicle: saline, higher = longer survival); 89 % of control (endpoint: median survival time, dose: 100.0 mg/kg/injection, schedule: Q01DX011 (ip), vehicle: saline, higher = longer survival).

As to `O=C(C[n+]1cc(Br)cc2ccccc21)c1ccc(O)c(O)c1`, the T/C runs as follows: (endpoint: mean tumor weight (est.), dose: 28.75 mg/kg/injection, schedule: Q01DX011 (ip), vehicle: saline, higher = larger tumour) 90 % of control; (endpoint: mean tumor weight (est.), dose: 57.5 mg/kg/injection, schedule: Q01DX011 (ip), vehicle: saline, higher = larger tumour) 95 % of control; (endpoint: mean tumor weight (est.), dose: 115.0 mg/kg/injection, schedule: Q01DX011 (ip), vehicle: saline, higher = larger tumour) 63 % of control; (endpoint: mean tumor weight (est.), dose: 230.0 mg/kg/injection, schedule: Q01DX011 (ip), vehicle: saline, higher = larger tumour) 52 % of control.

As to `O=C1NC(c2cccc3ccccc23)Nc2ccccc21` (configuration not stated), the T/C (endpoint: mean tumor weight, dose: 15.6 mg/kg/injection, schedule: Q01DX011 (ip), vehicle: saline with Tween-80, higher = larger tumour) is 86 % of control; the T/C (endpoint: mean tumor weight, dose: 31.2 mg/kg/injection, schedule: Q01DX011 (ip), vehicle: saline with Tween-80, higher = larger tumour) is 80 % of control; the T/C (endpoint: mean tumor weight, dose: 62.5 mg/kg/injection, schedule: Q01DX011 (ip), vehicle: saline with Tween-80, higher = larger tumour) was 90 % of control; the T/C (endpoint: mean tumor weight, dose: 125.0 mg/kg/injection, schedule: Q01DX011 (ip), vehicle: saline with Tween-80, higher = larger tumour) is 67 % of control; the T/C (endpoint: median survival time, dose: 15.6 mg/kg/injection, schedule: Q01DX011 (ip), vehicle: saline, higher = longer survival) is 102 % of control; the T/C (endpoint: median survival time, dose: 31.2 mg/kg/injection, schedule: Q01DX011 (ip), vehicle: saline, higher = longer survival) was 119 % of control. The T/C reads like this: (endpoint: median survival time, dose: 62.5 mg/kg/injection, schedule: Q01DX011 (ip), vehicle: saline, higher = longer survival) 114 % of control; (endpoint: median survival time, dose: 125.0 mg/kg/injection, schedule: Q01DX011 (ip), vehicle: saline, higher = longer survival) 114 % of control.

As to `CC(=O)[O][Hg][c]1s[c]([Hg][O]C(C)=O)[c]([Hg][O]C(C)=O)[c]1[Hg][O]C(C)=O`, the T/C reads like this: (endpoint: mean tumor weight (est.), dose: 6.25 mg/kg/injection, schedule: Q01DX011 (ip), vehicle: saline, higher = larger tumour) 45 % of control; (endpoint: mean tumor weight (est.), dose: 12.5 mg/kg/injection, schedule: Q01DX011 (ip), vehicle: saline, higher = larger tumour) 37 % of control; (endpoint: median survival time, dose: 12.5 mg/kg/injection, schedule: Q01DX011 (ip), vehicle: saline, higher = longer survival) 91 % of control.

In the case of `O=[N+]([O-])c1cc(Cl)cc2c1nc(NCCO)c1ccccc12`, the T/C is 70 % of control under setting [4]; 43 % of control (endpoint: mean tumor weight (est.), dose: 25.0 mg/kg/injection, schedule: Q01DX011 (ip), vehicle: saline with Tween-80, higher = larger tumour); 98 % of control under setting [5].

For the compound `C[C@H]1CN1C1=CC(=O)C(N2C[C@@H]2C)=CC1=O`, the T/C by setting is: (endpoint: median survival time, dose: 0.5 mg/kg/injection, schedule: Q01DX011 (ip), vehicle: saline with Tween-80, higher = longer survival) 102 % of control; (endpoint: median survival time, dose: 1.0 mg/kg/injection, schedule: Q01DX011 (ip), vehicle: saline with Tween-80, higher = longer survival) 113 % of control; (endpoint: median survival time, dose: 4.0 mg/kg/injection, schedule: Q01DX011 (ip), vehicle: saline with Tween-80, higher = longer survival) 108 % of control.

As for `C=CCNC(=O)NCC=C`, the T/C by setting is: (endpoint: mean tumor weight, dose: 6.25 mg/kg/injection, schedule: Q01DX011 (ip), vehicle: saline with Tween-80, higher = larger tumour) 74 % of control; (endpoint: mean tumor weight, dose: 12.5 mg/kg/injection, schedule: Q01DX011 (ip), vehicle: saline with Tween-80, higher = larger tumour) 69 % of control; (endpoint: mean tumor weight, dose: 25.0 mg/kg/injection, schedule: Q01DX011 (ip), vehicle: saline with Tween-80, higher = larger tumour) 73 % of control; (endpoint: mean tumor weight, dose: 50.0 mg/kg/injection, schedule: Q01DX011 (ip), vehicle: saline with Tween-80, higher = larger tumour) 76 % of control; (endpoint: mean tumor weight, dose: 100.0 mg/kg/injection, schedule: Q01DX011 (ip), vehicle: saline with Tween-80, higher = larger tumour) 80 % of control; (endpoint: median survival time, dose: 6.25 mg/kg/injection, schedule: Q01DX011 (ip), vehicle: saline with Tween-80, higher = longer survival) 113 % of control. The T/C is 108 % of control under setting [5]; 113 % of control (endpoint: median survival time, dose: 25.0 mg/kg/injection, schedule: Q01DX011 (ip), vehicle: saline with Tween-80, higher = longer survival); 86 % of control (endpoint: median survival time, dose: 50.0 mg/kg/injection, schedule: Q01DX011 (ip), vehicle: saline with Tween-80, higher = longer survival); 100 % of control (endpoint: median survival time, dose: 100.0 mg/kg/injection, schedule: Q01DX011 (ip), vehicle: saline with Tween-80, higher = longer survival).

As for `Cc1c(N)nc(C(CC(N)=O)NCC(N)C(N)=O)nc1C(=O)NC(C(=O)NC(C)C(O)C(C)C(=O)NC(C(=O)NCCc1nc(-c2nc(C(=O)NCCCNCCCCN)cs2)cs1)C(C)O)C(OC1OC(CO)C(O)C(O)C1OC1OC(CO)C(O)C(OC(N)=O)C1O)c1cnc[nH]1` (configuration not stated), the T/C runs as follows: under setting [1], 120 % of control; under setting [2], 150 % of control; under setting [3], 152 % of control.

For `Cc1nc2ccccc2nc1CBr`, the T/C is 64 % of control (endpoint: mean tumor weight (est.), dose: 3.2 mg/kg/injection, schedule: Q01DX011 (ip), vehicle: saline with Tween-80, higher = larger tumour); 80 % of control (endpoint: mean tumor weight (est.), dose: 6.3 mg/kg/injection, schedule: Q01DX011 (ip), vehicle: saline with Tween-80, higher = larger tumour); 56 % of control under setting [4]; 96 % of control (endpoint: median survival time, dose: 3.2 mg/kg/injection, schedule: Q01DX011 (ip), vehicle: saline with Tween-80, higher = longer survival); 101 % of control (endpoint: median survival time, dose: 6.3 mg/kg/injection, schedule: Q01DX011 (ip), vehicle: saline with Tween-80, higher = longer survival); 88 % of control under setting [5].

Consider `COC(=O)C(CSC(c1ccccc1)(c1ccccc1)c1ccccc1)NC(=O)C(CSCc1ccccc1)NC(C)=O` (configuration not stated) (Ac-Cys(Bn)-Cys(Trt)-OMe; configuration not given here), for which the T/C is 165 % of control (endpoint: median survival time, dose: 8.0 mg/kg/injection, schedule: Q01DX009 (ip), vehicle: Klucel (hydroxypropylcellulose) (HPC), higher = longer survival); 121 % of control (endpoint: median survival time, dose: 32.0 mg/kg/injection, schedule: Q01DX009 (ip), vehicle: Klucel (hydroxypropylcellulose) (HPC), higher = longer survival); 121 % of control (endpoint: median survival time, dose: 64.0 mg/kg/injection, schedule: Q01DX009 (ip), vehicle: Klucel (hydroxypropylcellulose) (HPC), higher = longer survival).
